Test results taken from patent US10835614B2, “Poly(diol fumarates) and poly(diol fumarate-co-succinates)” (William Marsh Rice University, priority 2016, dated 2020).
Converted amounts (≈) assume the structure as drawn.

Legend:
Assay in all cases: MIC, CLSI M38-A2 broth microdilution antifungal susceptibility testing
C. albicans Y4215 = type: cell-based; conditions: diols tested from 1024 μg/mL to 0.0625 μg/mL, triplicate; for MIC: Candida albicans, Y4215, read-out: minimum inhibitory concentration (MIC), C. albicans
Method: (§1) A. fumigatus Af293, C. albicans Y4215 and Rhiozpus oryzae R0969, all clinical isolates of pathogenic species, were used to determine the antifungal activity of three different terminal diols: 1,6-hexanediol; 1,8-octanediol; and 1,10-decanediol (all purchased from Sigma-Aldrich, St. Louis, Mo.). Briefly, minimum inhibitory concentration (MIC) was determined following the Clinical Laboratory & Standards Institute (CLSI) M38-A2 broth microdilution antifungal susceptibility testing method. […] The experiment was performed in triplicate for each species and each diol.

A. fumigatus Af293 = type: cell-based; conditions: diols tested from 1024 μg/mL to 0.0625 μg/mL, triplicate; for MIC: Aspergillus fumigatus, AF293, read-out: minimum inhibitory concentration (MIC), A. fumigatus
Method: as §1

Rhiozpus oryzae R0969 = type: cell-based, R. oryzae; conditions: diols tested from 1024 μg/mL to 0.0625 μg/mL, triplicate; for MIC: Rhizopus arrhizus, R0969, read-out: minimum inhibitory concentration (MIC), R. oryzae
Method: as §1

## OCCCCCCO [1,6-Hexanediol, 1,6-hexanediol]
C. albicans Y4215
  MIC: ≥ 1020 µg/mL
  minimum inhibitory concentration (MIC), C. albicans: did not demonstrate activity
A. fumigatus Af293
  MIC: ≥ 1020 µg/mL
  minimum inhibitory concentration (MIC), A. fumigatus: did not demonstrate activity
Rhiozpus oryzae R0969
  MIC: ≥ 1020 µg/mL
  minimum inhibitory concentration (MIC), R. oryzae: did not demonstrate activity

## OCCCCCCCCO [1,8-Octanediol, 1,8-octanediol]
C. albicans Y4215
  MIC: ≥ 1020 µg/mL
  minimum inhibitory concentration (MIC), C. albicans: did not demonstrate activity
A. fumigatus Af293
  MIC: ≥ 1020 µg/mL
  minimum inhibitory concentration (MIC), A. fumigatus: did not demonstrate activity
Rhiozpus oryzae R0969
  MIC: ≥ 1020 µg/mL
  minimum inhibitory concentration (MIC), R. oryzae: did not demonstrate activity

## OCCCCCCCCCCO [1,10-Decanediol, 1,10-decanediol]
C. albicans Y4215
  MIC: ≥ 1020 µg/mL
A. fumigatus Af293
  MIC: 256 µg/mL (≈ 1.47 mM)
Rhiozpus oryzae R0969
  MIC: 1020 µg/mL (≈ 5.88 mM)
